Measured values as given in patent US4839343A, “Preparation containing hexatriacontapeptides and methods of use” (Debiopharm, S.A., priority 1987, dated 1989).

Key:
[1] = tested on: patient seriously affected by bacteremic (endotoxic) shock; experiment: Treatment of patient with bacteremic (endotoxic) shock by intravenous peptide infusion; type: in vivo, human
Method: A patient seriously affected by bacteremic (endotoxic) shock was admitted in an intensive care unit and treated with dopamine given intravenously at doses of 10 and 20 mcg/kg/min.
A solution of NPY was then given by intravenous infusion at increasing doses of 0.01 to 50 pmol/kg/min over a period of 10 hours.

[2] = tested on: Normotensive male Wistar rats; experiment: Endotoxin-induced blood pressure fall in adrenal-demedullated conscious rats, i.v. NPY infusion; type: in vivo, rat
Method: Normotensive male Wistar rats were subjected to adrenal demedullation on the right side and either adrenolectomized or sham-operated on the left side. Ten days later a solution of NPY in non-alkaline saline was given as an intravenous infusion (70 ng/min) to these conscious semi-restrained animals. A group of control animals received only the saline diluent. During the last 75 minutes of the experiment, endotoxin (LPs E. Coli 0111: B4, 10 mcg/min i.v.) was administered both in NPY-treated and control animals.

[3] = tested on: Conscious normotensive rats; experiment: Pressor response to norepinephrine in conscious normotensive rats infused with endotoxin and/or NPY; type: in vivo, rat
Method: Conscious normotensive rats were divided into six groups. Rats of Group II and IV were infused intravenously with NPY (0.1 mcg/min for 75 min). A further two groups of rats (I and III) received the vehicle of the peptide ([…]) for the same period. Escherichia Coli endotoxin (lipopolysaccharide E. Coli 0.111: B4, Difco Laboratories, Detroit, MI), 10 mcg/10 mcl/min was infused starting 15 min after the beginning of the NPY-infusion (Group IV) or its vehicle (Group III). The remaining rats (Groups I and […]) were given the vehicle of endotoxin, 10 mcl/min i.v. In all these rats, a dose-response curve to intravenous injections of norepinephrine was obtained 5 min after ending the administration of NPY. The infusion of endotoxin or its vehicle was continued throughout this period. In two additional groups rats infused for 45 min with endotoxin or its vehicle, a 2 ml blood sample was obtained via the arterial catheter for determination of plasma NPY levels.
The endotoxin was dissolved in 0.9% NaCl to achieve a concentration of […]. NPY was diluted with 0.1M HCl to a concentration of 10 mg/l. Aliquots containing 15 mcg were stored frozen at -70° C. and thawed immediately before use. The different solutions were infused using a syringe pump (Model 455, Sage Instrument, White Plains, NY). Norepinephrine (Arterenol, Hoechst, Frankfurt-am-Main, FRG) was diluted in 0.9% NaCl to attain a concentration of 20 ng/20 mcl. Using a 250 mcl glass syringe (Hamilton), the dose of norepinephrine was increased by altering the volume injected.

Molecule | arterial pressure of the patient under dopamine alone ([1]; dopamine i.v. 10 and 20 mcg/kg/min, before NPY) | reduction of intraarterial mean blood pressure during endotoxin infusion ([2]; NPY 70 ng/min i.v. infusion, endotoxin 10 mcg/min i.v. for last 75 min, 12 rats, baseline 116±1.6 mm Hg, controls dropped 40±6.4 mm Hg, 2 of 9 died) [mm Hg] | effect of NPY infusion alone on blood pressure ([2]; another group of rats, NPY 70 ng/min i.v., no endotoxin) | pressor effects of norepinephrine after NPY infused alone (Group II) versus control (Group I) ([3]; NPY 0.1 mcg/min i.v. 75 min, norepinephrine 20, 40, 80, 160 ng, p<0.001, <0.01, <0.001, <0.05) | blood pressure response to norepinephrine in endotoxin plus NPY rats (Group IV) versus control rats (Group I) ([3]; NPY 0.1 mcg/min i.v. 75 min plus endotoxin, all norepinephrine doses tested) | blood pressure response to norepinephrine in endotoxin-treated rats (Group IV) versus endotoxin alone (Group III) ([3]; NPY 0.1 mcg/min i.v. 75 min plus endotoxin, norepinephrine 20, 40, 80, 160 ng i.v., p<0.05, <0.01, <0.01, <0.05) | effect on blood pressure or heart rate before norepinephrine injections ([3]; NPY 0.1 mcg/min i.v. for 75 min, alone or in combination with endotoxin 10 mcg/min) | duration of NPY-induced facilitation of norepinephrine evoked changes in blood pressure ([3]; last norepinephrine dose given 50 min after stopping the NPY infusion) | effect on concomitant dopamine dose ([1]; NPY i.v. infusion 0.01 to 50 pmol/kg/min over 10 hours, each time tachycardia was observed) | arterial pressure of the patient ([1]; NPY i.v. infusion, increasing doses 0.01 to 50 pmol/kg/min over 10 hours, with dopamine)
NCCc1ccc(O)c(O)c1 [dopamine, reference compound] | continued to fall |  |  |  |  |  |  |  |  | 
neuropeptide Y [NPY] |  | 8±2.1 | no significant effect on blood pressure | significantly enhanced | no longer any significant difference | significantly greater than in those animals receiving endotoxin alone | no significant effect on blood pressure or heart rate | long-lasting | allowed a decrease in the dose of dopamine | normalization of arterial pressure
